The record followed here is patent publication US12291532B2, “Substituted xanthines as modulators of TRPC5 activity” (Boehringer Ingelheim International GmbH, priority 2018, dated 2025).

One may read the IC50 as the concentration that inhibits the measured activity by half. Low values mean higher potency, high ones lower potency.

The experiment has as its target T1, TRPC5 (Homo sapiens, UniProt Q9UL62).
T1 construct: expressed in transfected cells; host or cells: HEK293 TREx (inducible expression, induced 20-48 hours)
T1 sequence (Q9UL62 1-973): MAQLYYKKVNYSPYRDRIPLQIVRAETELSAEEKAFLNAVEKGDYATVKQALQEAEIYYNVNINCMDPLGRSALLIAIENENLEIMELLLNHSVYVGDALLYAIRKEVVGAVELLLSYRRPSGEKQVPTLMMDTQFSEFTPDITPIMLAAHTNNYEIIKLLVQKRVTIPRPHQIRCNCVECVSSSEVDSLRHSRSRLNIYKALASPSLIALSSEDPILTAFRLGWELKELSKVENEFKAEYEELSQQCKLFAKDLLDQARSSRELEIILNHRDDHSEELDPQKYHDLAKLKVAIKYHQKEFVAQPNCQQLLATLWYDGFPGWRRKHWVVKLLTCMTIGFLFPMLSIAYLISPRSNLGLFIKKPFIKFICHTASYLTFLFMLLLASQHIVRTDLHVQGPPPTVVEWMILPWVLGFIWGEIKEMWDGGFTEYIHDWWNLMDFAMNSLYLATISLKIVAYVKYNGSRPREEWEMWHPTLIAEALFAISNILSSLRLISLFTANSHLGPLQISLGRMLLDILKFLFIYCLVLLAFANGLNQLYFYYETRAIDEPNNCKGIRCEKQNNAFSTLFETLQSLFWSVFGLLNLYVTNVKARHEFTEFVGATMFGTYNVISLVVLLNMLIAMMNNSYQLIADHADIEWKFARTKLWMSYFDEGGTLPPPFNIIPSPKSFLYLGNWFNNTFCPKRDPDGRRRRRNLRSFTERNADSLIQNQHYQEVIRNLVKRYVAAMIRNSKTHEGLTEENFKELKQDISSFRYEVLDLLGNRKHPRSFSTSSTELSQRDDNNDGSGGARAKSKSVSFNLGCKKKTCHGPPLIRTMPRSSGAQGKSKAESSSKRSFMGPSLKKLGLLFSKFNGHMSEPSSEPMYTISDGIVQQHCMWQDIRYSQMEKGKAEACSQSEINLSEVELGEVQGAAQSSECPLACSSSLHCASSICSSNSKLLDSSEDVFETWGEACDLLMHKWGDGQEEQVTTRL
Description: Assay A: Determination of TRPC5-Inhibition (whole-cell patch clamp). Type of experiment: cell-based. As to conditions: compounds of the present invention, TRPC5-expressing HEK293 TREx cells, current activated by LaCl3. The text has this: Assay A: Determination of TRPC5-Inhibition
Patch clamp experiments permit the detection of currents through the TRPC5 channel in a cell line. In normal whole-cell patch clamp recordings, a glass electrode is brought into contact with a single cell and a high-resistance (gigaohm) seal is established with the cell membrane. The membrane is then ruptured to achieve the whole-cell configuration, permitting control of the voltage of the cell membrane and measurement of currents flowing across the membrane using the amplifier attached to the electrode and resulting in the replacement of cytoplasm with the pipette solution. A perfusion system permits control of the extracellular solution, including the addition of blockers and activators of the current. The current can be activated by including 1.4 μM free Ca2+ in the pipette (intracellular) solution, and 80 μM LaCl3 in the extracellular solution.
TRPC5 cells were induced 20-48 hours, removed from growth plates, and replated at low density (to attain good single-cell physical separation) on glass coverslips for measurement. In some cases, cells were grown in low density overnight on glass coverslips. Patch clamp recordings were made in the whole-cell mode with a holding potential of −40 mV. Every 5 seconds, a voltage ramp was applied from −120 to +100 mV, 400 ms in duration. Currents elicited were quantified at −80 mV and +80 mV. The internal solution consisted of 140 mM cesium aspartate, 10 mM HEDTA, 2 mM CaCl2, 2.27 mM MgCl2 and 10 mM HEPES, pH 7.2, with 1,400 nM calculated free Ca2+. The external solution consisted of 150 mM NaCl, 4.5 mM 15 KCl, 1 mM MgCl2, 2 mM CaCl2, 10 mM HEPES, 10 mM glucose, 1 mM EGTA, pH 7.4. Upon addition of LaCl3, TRPC5 current was induced only in TRPC5-expressing cells and not in parental HEK293 TREx cells. Removal of the LaCh stimulus causes most of the current to go away. Potential blockers were tested for ability to block both inward and outward currents in the continued presence of LaCl3.
IC50 of a compound of the invention was estimated by testing the compound 500 nM. […] Compounds blocking 50% or more at 500 nM are retested at multiple concentrations, and the % block is fitted by standard equations to determine […] accurately, using a […] concentration-response experiment.
In the case of `CCn1c(=O)n(CCCO)c(=O)c2c1nc(-c1ncc(OC3CCC3C)nc1C)n2Cc1ccc(Cl)cc1` (stereo not drawn) [Example 1], the IC50 was 0.172 nM. This lies in the sub-nanomolar range.
The result for `Cc1nc(OC2CCC2)cnc1-c1nc2c(c(=O)n(CCCO)c(=O)n2C(C)C)n1Cc1ccccc1` [Example 2] reads 0.207 nM.
The value for `CCn1c(=O)n(CCCO)c(=O)c2c1nc(-c1ncc(OC3CCC3)nc1C)n2Cc1ccccc1` [Example 6] was 1.22 nM; that for `CCn1c(=O)n(CCCO)c(=O)c2c1nc(-c1cnc(OC3CCC3)cn1)n2Cc1ccccc1` [Example 4] was 1.11 nM; that for `CCn1c(=O)n(CCCO)c(=O)c2c1nc(-c1ncc(OC3CCC3C)nc1C)n2Cc1ccc(F)cc1` (stereo not drawn) [Example 5] was 0.29 nM.
On to `CCn1c(=O)n(CCCO)c(=O)c2c1nc(-c1cnc(OC3CCC3)cn1)n2Cc1ccc(F)cc1` [Example 3], for which the IC50 amounted to 0.506 nM.
